Earlier results, collected in patent publication US20110091459A1, “IMIDAZOLE MODULATORS OF MUSCARINIC ACETYLCHOLINE RECEPTOR M3” (AUSPEX PHARMACEUTICALS, INC., priority 2008, published 2011).

Assays:
[1] = in vivo
[2] = in vivo; remark: listed apart in the source
[3] = metabolite formed by CYP2A6 mediated hydroxylation of the lactone ring

Row | Compound | half-life [1] [min] | adverse effects [2] | pharmacological activity [3]
1 | CC[C@@H]1C(=O)OC[C@@H]1Cc1cncn1C [Pilocarpine, (3S,4R)-3-ethyl-4-((1-methyl-1H-imidazol-5-yl)methyl)dihydrofuran-2(3H)-one] | 45.6 to 81 | blurred vision, nightblindness, and pulmonary edema | –
2 | CC[C@@]1(O)C(=O)OC[C@H]1Cc1cncn1C [3-hydroxypilocarpine] | – | – | pharmacologically inactive
